# Data: PubChem BioAssay (NCI)
#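 Values below derive from 48-hour exposures of cells grown in 96-well plates, with endpoints linearly interpolated between the two concentrations bracketing the appropriate inhibition level. The concentration for 50% growth inhibition is given as GI50. At the TGI there is no net growth.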
# Key:
# Assay in all cases: growth of human tumour cells (NCI), 48 h
# OVCAR-8 ovarian = test system: OVCAR-8 ovarian
# SW-620 colon = test system: SW-620 colon
# MCF7 breast = test system: MCF7 breast
# SK-MEL-28 melanoma = test system: SK-MEL-28 melanoma
# UACC-257 melanoma = test system: UACC-257 melanoma
# UACC-62 melanoma = test system: UACC-62 melanoma
# LOX IMVI melanoma = test system: LOX IMVI melanoma
# SR leukemia = test system: SR leukemia
# SNB-19 CNS = test system: SNB-19 CNS
# HOP-62 NSCLC = test system: HOP-62 NSCLC
# K-562 leukemia = test system: K-562 leukemia
# TK-10 renal = test system: TK-10 renal
# HCC-2998 colon = test system: HCC-2998 colon
# M14 melanoma = test system: M14 melanoma
# PC-3 prostate = test system: PC-3 prostate
# UO-31 renal = test system: UO-31 renal
# NCI/ADR-RES ovarian = test system: NCI/ADR-RES ovarian
# HT29 colon = test system: HT29 colon
# ACHN renal = test system: ACHN renal
# OVCAR-5 ovarian = test system: OVCAR-5 ovarian
# SNB-75 CNS = test system: SNB-75 CNS
# A549 NSCLC = test system: A549 NSCLC
# NCI-H522 lung = test system: NCI-H522 lung
# SK-OV-3 ovarian = test system: SK-OV-3 ovarian
# SF-295 CNS = test system: SF-295 CNS
# BT-549 breast = test system: BT-549 breast
# IGROV1 ovarian = test system: IGROV1 ovarian
# U251 CNS = test system: U251 CNS
# HCT-15 colon = test system: HCT-15 colon
# SK-MEL-5 melanoma = test system: SK-MEL-5 melanoma
# T-47D breast = test system: T-47D breast
# COLO 205 colon = test system: COLO 205 colon
# MOLT-4 leukemia = test system: MOLT-4 leukemia
# MDA-MB-231 breast = test system: MDA-MB-231 breast
# DU-145 prostate = test system: DU-145 prostate
# NCI-H226 lung = test system: NCI-H226 lung
# HS 578T breast = test system: HS 578T breast
# CAKI-1 renal = test system: CAKI-1 renal
# MALME-3M melanoma = test system: MALME-3M melanoma
# SF-268 CNS = test system: SF-268 CNS
# RXF 393 renal = test system: RXF 393 renal
# HCT-116 colon = test system: HCT-116 colon
# KM12 colon = test system: KM12 colon
# SF-539 CNS = test system: SF-539 CNS
# MDA-MB-435 = test system: MDA-MB-435
# SN12C renal = test system: SN12C renal
# NCI-H23 lung = test system: NCI-H23 lung
# OVCAR-4 ovarian = test system: OVCAR-4 ovarian
# A498 renal = test system: A498 renal
# NCI-H460 lung = test system: NCI-H460 lung
# HOP-92 NSCLC = test system: HOP-92 NSCLC
# EKVX NSCLC = test system: EKVX NSCLC
# RPMI-8226 leukemia = test system: RPMI-8226 leukemia
# CCRF-CEM leukemia = test system: CCRF-CEM leukemia
# HL-60(TB) leukemia = test system: HL-60(TB) leukemia
compound,measurement,setting,value
CN(C)c1ccc(-c2cc(-c3c[nH]c4ccccc34)nc(N)c2C#N)cc1,GI50,OVCAR-8 ovarian,2.78 µM
same,TGI,OVCAR-8 ovarian,10.7 µM
same,GI50,SW-620 colon,2.16 µM
same,TGI,SW-620 colon,11.3 µM
same,GI50,MCF7 breast,1.51 µM
same,TGI,MCF7 breast,10.4 µM
same,GI50,SK-MEL-28 melanoma,1.78 µM
same,TGI,SK-MEL-28 melanoma,4.6 µM
same,GI50,UACC-257 melanoma,1.89 µM
same,TGI,UACC-257 melanoma,4.74 µM
same,GI50,UACC-62 melanoma,2.05 µM
same,TGI,UACC-62 melanoma,7.27 µM
same,GI50,LOX IMVI melanoma,1.56 µM
same,TGI,LOX IMVI melanoma,3.58 µM
same,GI50,SR leukemia,0.419 µM
same,TGI,SR leukemia,4.21 µM
same,GI50,SNB-19 CNS,2.96 µM
same,TGI,SNB-19 CNS,> 100 µM
same,GI50,HOP-62 NSCLC,1.83 µM
same,TGI,HOP-62 NSCLC,6.96 µM
same,GI50,K-562 leukemia,0.653 µM
same,TGI,K-562 leukemia,> 100 µM
same,GI50,TK-10 renal,4.1 µM
same,TGI,TK-10 renal,39.8 µM
same,GI50,HCC-2998 colon,2.15 µM
same,TGI,HCC-2998 colon,10.5 µM
same,GI50,M14 melanoma,1.7 µM
same,TGI,M14 melanoma,4.35 µM
same,GI50,PC-3 prostate,2.79 µM
same,TGI,PC-3 prostate,15.6 µM
same,GI50,UO-31 renal,1.88 µM
same,TGI,UO-31 renal,6.37 µM
same,GI50,NCI/ADR-RES ovarian,1.82 µM
same,TGI,NCI/ADR-RES ovarian,> 100 µM
same,GI50,HT29 colon,1.72 µM
same,TGI,HT29 colon,6.43 µM
same,GI50,ACHN renal,2.79 µM
same,TGI,ACHN renal,23.4 µM
same,GI50,OVCAR-5 ovarian,3.17 µM
same,TGI,OVCAR-5 ovarian,19.1 µM
same,GI50,SNB-75 CNS,1.84 µM
same,TGI,SNB-75 CNS,8.96 µM
same,GI50,A549 NSCLC,1.92 µM
same,TGI,A549 NSCLC,7.09 µM
same,GI50,NCI-H522 lung,0.446 µM
same,TGI,NCI-H522 lung,2.16 µM
same,GI50,SK-OV-3 ovarian,2.05 µM
same,TGI,SK-OV-3 ovarian,4.88 µM
same,GI50,SF-295 CNS,1.86 µM
same,TGI,SF-295 CNS,4.14 µM
same,GI50,BT-549 breast,2.22 µM
same,TGI,BT-549 breast,7.31 µM
same,GI50,IGROV1 ovarian,2.35 µM
same,TGI,IGROV1 ovarian,17.6 µM
same,GI50,U251 CNS,1.53 µM
same,TGI,U251 CNS,4.21 µM
same,GI50,HCT-15 colon,0.485 µM
same,TGI,HCT-15 colon,10.4 µM
same,GI50,SK-MEL-5 melanoma,1.84 µM
same,TGI,SK-MEL-5 melanoma,3.6 µM
same,GI50,T-47D breast,2.32 µM
same,TGI,T-47D breast,7.83 µM
same,GI50,COLO 205 colon,2.11 µM
same,TGI,COLO 205 colon,6.03 µM
same,GI50,MOLT-4 leukemia,1.89 µM
same,TGI,MOLT-4 leukemia,14.1 µM
same,GI50,MDA-MB-231 breast,2.16 µM
same,TGI,MDA-MB-231 breast,10.6 µM
same,GI50,DU-145 prostate,3.45 µM
same,TGI,DU-145 prostate,21 µM
same,GI50,NCI-H226 lung,4.23 µM
same,TGI,NCI-H226 lung,27 µM
same,GI50,HS 578T breast,2.08 µM
same,TGI,HS 578T breast,6.71 µM
same,GI50,CAKI-1 renal,1.67 µM
same,TGI,CAKI-1 renal,7.21 µM
same,GI50,MALME-3M melanoma,1.72 µM
same,TGI,MALME-3M melanoma,4.6 µM
same,GI50,SF-268 CNS,3.89 µM
same,TGI,SF-268 CNS,31.9 µM
same,GI50,RXF 393 renal,1.3 µM
same,TGI,RXF 393 renal,3.13 µM
same,GI50,HCT-116 colon,1.6 µM
same,TGI,HCT-116 colon,4.45 µM
same,GI50,KM12 colon,1.85 µM
same,TGI,KM12 colon,8.72 µM
same,GI50,SF-539 CNS,1.33 µM
same,TGI,SF-539 CNS,3.05 µM
same,GI50,MDA-MB-435,0.466 µM
same,TGI,MDA-MB-435,10.1 µM
same,GI50,SN12C renal,2.87 µM
same,TGI,SN12C renal,10.8 µM
same,GI50,NCI-H23 lung,3.13 µM
same,TGI,NCI-H23 lung,15.7 µM
same,GI50,OVCAR-4 ovarian,4.78 µM
same,TGI,OVCAR-4 ovarian,31.6 µM
same,GI50,A498 renal,1.78 µM
same,TGI,A498 renal,4.66 µM
same,GI50,NCI-H460 lung,1.06 µM
same,TGI,NCI-H460 lung,3.5 µM
same,GI50,HOP-92 NSCLC,2.14 µM
same,TGI,HOP-92 NSCLC,5.12 µM
same,GI50,EKVX NSCLC,3.38 µM
same,TGI,EKVX NSCLC,27.2 µM
same,GI50,RPMI-8226 leukemia,1.95 µM
same,TGI,RPMI-8226 leukemia,4.89 µM
same,GI50,CCRF-CEM leukemia,1.54 µM
same,TGI,CCRF-CEM leukemia,36.4 µM
same,GI50,HL-60(TB) leukemia,1.79 µM
same,TGI,HL-60(TB) leukemia,6.03 µM
